This is an account of results in patent US10273224B2, “Substituted pyrimidine compounds, compositions and medicinal applications thereof” (JUBILANT BIOSYS LIMITED, priority 2013, dated 2019).

T1 sequence (P00533 25-1210 T790M/L858R): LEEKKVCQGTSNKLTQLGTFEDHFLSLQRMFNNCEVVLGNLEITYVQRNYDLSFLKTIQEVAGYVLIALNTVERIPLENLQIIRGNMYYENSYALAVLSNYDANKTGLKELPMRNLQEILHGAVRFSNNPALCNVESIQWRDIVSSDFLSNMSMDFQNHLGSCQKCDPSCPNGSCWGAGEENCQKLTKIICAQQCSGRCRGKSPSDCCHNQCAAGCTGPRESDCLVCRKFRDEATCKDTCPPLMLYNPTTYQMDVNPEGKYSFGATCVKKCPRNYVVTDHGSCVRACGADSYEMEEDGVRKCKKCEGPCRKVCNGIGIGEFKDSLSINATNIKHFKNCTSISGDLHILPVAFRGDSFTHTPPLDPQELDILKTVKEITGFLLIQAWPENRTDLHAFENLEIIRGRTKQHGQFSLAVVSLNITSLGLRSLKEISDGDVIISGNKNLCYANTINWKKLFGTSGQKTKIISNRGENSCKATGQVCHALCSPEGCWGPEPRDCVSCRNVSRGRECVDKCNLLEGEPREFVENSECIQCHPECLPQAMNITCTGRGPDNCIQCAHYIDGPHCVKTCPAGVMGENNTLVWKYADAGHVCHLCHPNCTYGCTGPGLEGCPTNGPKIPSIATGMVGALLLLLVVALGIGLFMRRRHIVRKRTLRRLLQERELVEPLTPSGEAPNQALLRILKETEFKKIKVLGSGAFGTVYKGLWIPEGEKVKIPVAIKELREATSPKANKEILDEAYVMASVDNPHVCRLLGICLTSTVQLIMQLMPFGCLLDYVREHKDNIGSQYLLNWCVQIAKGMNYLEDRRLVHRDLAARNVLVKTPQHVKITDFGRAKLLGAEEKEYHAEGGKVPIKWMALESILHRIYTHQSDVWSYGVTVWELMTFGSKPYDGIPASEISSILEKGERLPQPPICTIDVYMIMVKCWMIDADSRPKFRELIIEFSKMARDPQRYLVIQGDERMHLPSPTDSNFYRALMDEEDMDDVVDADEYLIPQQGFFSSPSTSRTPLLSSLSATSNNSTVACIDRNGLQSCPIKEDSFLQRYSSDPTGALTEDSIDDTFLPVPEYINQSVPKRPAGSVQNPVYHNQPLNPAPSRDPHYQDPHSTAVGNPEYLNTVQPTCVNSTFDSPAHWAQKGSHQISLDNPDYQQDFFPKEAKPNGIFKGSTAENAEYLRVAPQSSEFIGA

The assay concerns the target T1, EGFR (L858R & T790M) (Homo sapiens, UniProt P00533, L858R/T790M).
T1 construct: GST; purchased Proqinase
The experiment in a line: EGFR (L858R & T790M) inhibition assay, HTRF method. As to conditions: biochemical HTRF; EGFR (T790M/L858R) 2.5 nM, ATP 5 μM, 60 min room temperature. The protocol: Example 25: Biological Activity: EGFR T790M Assay Protocol
The objective of the experiment is to find the IC50 for the compounds using HTRF method.
Reagents for Enzyme Assay:
1. Enzyme Assay Buffer: 60 mM HEPES (pH 7.4), 50 mM NaCl, 20 mM MgCl2, 5 mM MnCl2, filter using 0.2 µm pore size, store at 4° C.
Supplements (add fresh to the enzyme buffer): Make 1M DTT stock, 5% BSA stock and 0.1M Na3OV4 stored at 4° C. Enzyme assay buffer 50 ml, 1 M DTT 100 μl, 5% BSA 500 μl, 0.1M Na3OV4 50 μl.
2. GST-hEGFR (L858R), active: EGFR (T790M/L858R), active (Proqinase), 3.6 μM stock; 2.5 nM in final assay.
3. Gastrin Precusor-Biotinylated: Gastrin precursor (Tyr87) biotinylated peptide (EEAY*GWM), Cell Signaling Tech 1310, Lot-7, Want final 0.5 μM in assay
4. ATP: 10 mM stock in 100 μl Enzyme assay buffer pH 7.4 prepared freshly, want 5 μM in final assay.
5. Test compounds: Dissolve powders in 100% DMSO to a final stock concentration of 10 mM (volume in μL to add for 10 mM=mg powder×10^5/MW). Final comp concentration in the assay plate is starting at 10 μM.
1. HTRF buffer: 50 mM Tris-HCl, pH-7.5, 100 mM NaCl, 0.1% BSA, 0.05% Tween20, 0.5 mM EDTA, filter using 0.2 µm pore size, store at 4° C.
Phycolink® Streptavidin-Allophycocyanin (SA-APC) Prozyme, Cat. #PJ25S, Lot #896 085, 2.06 mg/mL, APC concentration is 11.6 μM, streptavidin concentration is 15.5 μM. Want 12 nM final in assay (based on streptavidin concentration).
2. Europium-W1024-PT-66 Anti Phospho Tyrosine Antibody: Perkin Elmer (AD0068), monoclonal IgG1 that recognizes phospho tyrosine peptide 100 μg/ml stock. Want 0.1 nM final in assay.
• 1. Make the compound dilution by TECAN as per the above scheme. • 2. Add 16 μl of diluted compound to the assay plate by using TECAN • 3. Add 10 μl of enzyme mix to each well except mins. • 4. Add 20 μl of substrate and ATP mix into each well of the assay plate manually. • 5. Incubate the plate at room temperature for 60 min with shaking. • 6. Meanwhile prepare the HTRF mix and add 75 μl to the HTRF plate. • 7. When the incubation is over, transfer 10 μl of the reaction mixture to the HTRF assay plate and incubate for 30 min at room temperature with shaking. • 8. Take the reading in Pherastar (ext 337 nm, em 665 & 620 nm). • 9. Analyze the results using Graphpad prism after calculation the z factor, signal window and % inhibition to get the IC50.
Compounds having IC50<10 nM are designated as “A”; 10-100 nM are designated as “B”; and >100 nM as “C”.
In general terms: In TR-FRET formats the signal depends on donor and acceptor labels being close together.
As to `C=CC(=O)N1CCCC(Oc2nc(Nc3cnn(C)c3)ncc2Cl)C1` (single isomer, unassigned) [II-13 (Enantiomer 2), 1-(3-((5-chloro-2-((1-methyl-1H-pyrazol-4-yl)amino)pyrimidin-4-yl)oxy)piperidin-1-yl)prop-2-en-1-one], the concentration for half-maximal inhibition (IC50) (commonly the midpoint of a concentration-inhibition curve) was more than 100 nM. In the case of `C=CC(=O)Nc1cccc(Nc2nc(Nc3cnn(C4CCN(C)CC4)c3)ncc2Cl)c1` [Compound I-1, N-(3-((5-chloro-2-((1-(1-methylpiperidin-4-yl)-1H-pyrazol-4-yl)amino)pyrimidin-4-yl)amino)phenyl)acrylamide], the IC50 is less than 10 nM.

In the case of `C=CC(=O)Nc1cccc(Nc2nc(Nc3cn(CCOC)nc3C)ncc2Cl)c1` [Compound I-2, N-(3-((5-chloro-2-((1-(2-methoxyethyl)-3-methyl-1H-pyrazol-4-yl)amino)pyrimidin-4-yl)amino)phenyl)acrylamide], the IC50 was more than 100 nM. In the case of `C=CC(=O)Nc1cccc(Nc2nc(Nc3cnn(CCOC)c3C)ncc2Cl)c1` [Compound I-3, N-(3-((5-chloro-2-((1-(2-methoxyethyl)-5-methyl-1H-pyrazol-4-yl)amino)pyrimidin-4-yl)amino)phenyl)acrylamide] it was 10 to 100 nM; in that of `C=CC(=O)Nc1cccc(Nc2nc(Nc3cnn(C(C)C)c3)ncc2Cl)c1` [Compound I-4, N-(3-((5-chloro-2-((1-isopropyl-1H-pyrazol-4-yl)amino)pyrimidin-4-yl)amino)phenyl)acrylamide], 10 to 100 nM; in that of `C=CC(=O)Nc1cccc(Nc2nc(Nc3cnn(CCN(C)C)c3)ncc2Cl)c1` [Compound I-5, N-(3-((5-chloro-2-((1-(2-(dimethylamino)ethyl)-1H-pyrazol-4-yl)amino)pyrimidin-4-yl)amino)phenyl)acrylamide], 10 to 100 nM.

Regarding `COCCn1cc(Nc2ncc(Cl)c(Nc3cccc(NC(=O)C=C4CCCCC4)c3)n2)cn1` [Compound I-6, N-(3-((5-chloro-2-((1-(2-methoxyethyl)-1H-pyrazol-4-yl)amino)pyrimidin-4-yl)amino)phenyl)-2-cyclohexylideneacetamide], the 50% inhibitory concentration (IC50) is more than 100 nM. In the case of `C=CC(=O)Nc1cccc(Nc2nc(Nc3cnn(CC4CC4)c3)ncc2Cl)c1` [Compound I-7, N-(3-((5-chloro-2-((1-(cyclopropylmethyl)-1H-pyrazol-4-yl)amino)pyrimidin-4-yl)amino)phenyl)acrylamide] it was 10 to 100 nM; in that of `C=CC(=O)Nc1cccc(Nc2nc(Nc3c(C)nn(C4CCN(C)CC4)c3C)ncc2Cl)c1` [Compound I-8, N-(3-((5-chloro-2-((3,5-dimethyl-1-(1-methylpiperidin-4-yl)-1H-pyrazol-4-yl)amino)pyrimidin-4-yl)amino)phenyl)acrylamide], more than 100 nM. In the case of `C=C(C)C(=O)Nc1cccc(Nc2nc(Nc3cnn(C4CCN(C)CC4)c3)ncc2Cl)c1` [Compound I-9, N-(3-((5-chloro-2-((1-(1-methylpiperidin-4-yl)-1H-pyrazol-4-yl)amino)pyrimidin-4-yl)amino)phenyl)methacrylamide] it was more than 100 nM; in that of `C=CC(=O)Nc1cccc(Nc2nc(Nc3cnn(S(C)(=O)=O)c3)ncc2Cl)c1` [Compound I-10, N-(3-((5-chloro-2-((1-(methylsulfonyl)-1H-pyrazol-4-yl)amino)pyrimidin-4-yl)amino)phenyl)acrylamide], 10 to 100 nM. The value for `C=CC(=O)Nc1cccc(Nc2nc(Nc3c(C)nn(C)c3C)ncc2Cl)c1` [Compound I-11, N-(3-((5-chloro-2-((1,3,5-trimethyl-1H-pyrazol-4-yl)amino)pyrimidin-4-yl)amino)phenyl)acrylamide] was more than 100 nM.

Regarding `C=CC(=O)Nc1cccc(Nc2nc(Nc3cnn(C4CCN(C)CC4)c3)ncc2OC)c1` [Compound I-12, N-(3-((5-methoxy-2-((1-(1-methylpiperidin-4-yl)-1H-pyrazol-4-yl)amino)pyrimidin-4-yl)amino)phenyl)acrylamide], the half-inhibitory concentration (IC50) was in the range of 10 to 100 nM.

As to `C=CC(=O)Nc1cccc(Nc2nc(Nc3cnn(C4CCN(C)CC4)c3)ncc2C)c1` [Compound I-13, N-(3-((5-methyl-2-((1-(1-methylpiperidin-4-yl)-1H-pyrazol-4-yl)amino)pyrimidin-4-yl)amino)phenyl)acrylamide], the IC50 lay within 10 to 100 nM. In the case of `C=CC(=O)Nc1cccc(Nc2nc(Nc3cnn(C4CCN(C)CC4)c3)ncc2C(F)(F)F)c1` [Compound I-14, N-(3-((2-((1-(1-methylpiperidin-4-yl)-1H-pyrazol-4-yl)amino)-5-(trifluoromethyl)pyrimidin-4-yl)amino)phenyl)acrylamide] it was more than 100 nM; in that of `C=CC(=O)Nc1cccc(Nc2nc(Nc3cnn(C)c3)ncc2C)c1` [Compound I-15, N-(3-((5-methyl-2-((1-methyl-1H-pyrazol-4-yl)amino)pyrimidin-4-yl)amino)phenyl)acrylamide], 10 to 100 nM. In the case of `C=CC(=O)Nc1cccc(Nc2nc(Nc3cnn(C4CCN(CCF)CC4)c3)ncc2Cl)c1` [Compound I-16, N-(3-((5-chloro-2-((1-(1-(2-fluoroethyl)piperidin-4-yl)-1H-pyrazol-4-yl)amino)pyrimidin-4-yl)amino)phenyl)acrylamide] it was less than 10 nM; in that of `C=CC(=O)Nc1cccc(Nc2nc(Nc3cnn(CC(C)(C)O)c3)ncc2Cl)c1` [Compound I-17, N-(3-((5-chloro-2-((1-(2-hydroxy-2-methylpropyl)-1H-pyrazol-4-yl)amino)pyrimidin-4-yl)amino)phenyl)acrylamide], more than 100 nM.

For the molecule `C=CC(=O)Nc1cccc(Nc2nc(Nc3cnn(C4CCN(C)CC4)c3)ncc2F)c1` [Compound I-18, N-(3-((5-fluoro-2-((1-(1-methylpiperidin-4-yl)-1H-pyrazol-4-yl)amino)pyrimidin-4-yl)amino)phenyl)acrylamide], the IC50 lay in the range of 10 to 100 nM. In the case of `C=CC(=O)Nc1cccc(Nc2nc(Nc3cnn(C)c3)ncc2Cl)c1` [Compound I-19, N-(3-((5-chloro-2-((1-methyl-1H-pyrazol-4-yl)amino)pyrimidin-4-yl)amino)phenyl)acrylamide] it was less than 10 nM.

On to `C=CC(=O)Nc1cccc(Nc2nc(Nc3cnn(CCOC)c3)ncc2Cl)c1` [Compound I-20, N-(3-((5-chloro-2-((1-(2-methoxyethyl)-1H-pyrazol-4-yl)amino)pyrimidin-4-yl)amino)phenyl)acrylamide], for which the IC50 is 10 to 100 nM.

For `C=CC(=O)Nc1cccc(Nc2nc(Nc3cnn(CCO)c3)ncc2Cl)c1` [Compound I-21, N-(3-((5-chloro-2-((1-(2-hydroxyethyl)-1H-pyrazol-4-yl)amino)pyrimidin-4-yl)amino)phenyl)acrylamide], the half-inhibitory concentration (IC50) is less than 10 nM. The value for `C=CC(=O)Nc1cccc(Nc2nc(Nc3cnn(S(=O)(=O)C4CC4)c3)ncc2Cl)c1` [Compound I-22, N-(3-((5-chloro-2-((1-(cyclopropylsulfonyl)-1H-pyrazol-4-yl)amino)pyrimidin-4-yl)amino)phenyl)acrylamide] was 10 to 100 nM; that for `C=CC(=O)Nc1cccc(Nc2nc(Nc3cnn(C)c3C)ncc2Cl)c1` [Compound I-23, N-(3-((5-chloro-2-((1,5-dimethyl-1H-pyrazol-4-yl)amino)pyrimidin-4-yl)amino)phenyl)acrylamide] was more than 100 nM. In the case of `C=CC(=O)Nc1cccc(Nc2nc(Nc3cc(COC)n(C)n3)ncc2Cl)c1` [Compound I-24, N-(3-((5-chloro-2-((5-(methoxymethyl)-1-methyl-1H-pyrazol-3-yl)amino)pyrimidin-4-yl)amino)phenyl)acrylamide] it was 10 to 100 nM; in that of `CN1CCC(n2cc(Nc3ncc(Cl)c(Nc4cccc(NC(=O)C=C5CCC(F)(F)CC5)c4)n3)cn2)CC1` [Compound I-25, N-(3-((5-chloro-2-((1-(1-methylpiperidin-4-yl)-1H-pyrazol-4-yl)amino)pyrimidin-4-yl)amino)phenyl)-2-(4,4-difluorocyclohexylidene)acetamide], more than 100 nM.
